Results as given in patent US11352604B2, “Method of making cardiomyocytes from human pluripotent cells” (Wisconsin Alumni Research Foundation, priority 2016, dated 2022).

Tested on: hPSC-CMs
Test: Bottom-up label-free quantitative proteomics, day 30 hPSC-CMs from pI:C-treated vs untreated progenitors
Assay type: cell-based, human
Description: Frozen CM pellets from day 30 in the H9 cTnT-GFP reporter cell line with or without pI:C treatment were washed with Ca^2+-free DPBS and centrifuged at 10,000 g for 10 min and the wash solvent was removed. 10 μl of 4 M urea, 0.5 M ammonium bicarbonate, 1 mM DTT, 10 mM L-methionine was added to the each pellet, and the pellets were vortexed and sonicated for 5 min, followed by incubation with shaking at 50° C. for 10 min. ProteaseMax™ surfactant was added to a final concentration of 0.04% and the pellets were vortexed and incubated at 37° C. for 10 min. 30 μl of water was added to the pellets, and the pellets were incubated at 80° C. for 20 min. After centrifugation at 16,000 g for 10 min, the supernatant was collected for Bradford assay to determine protein concentration. All samples were diluted to 800 ng/μl using 1 M urea and 125 mM ammonium bicarbonate, and 50 μl of the extract was reduced with 10 mM DTT for 30 min at 37° C., followed by alkylation with 25 mM Iodoacetamide for 30 min at room temperature in dark. The pH of the samples were tested to make sure the pH was between 7-8 and Trypsin Gold (Promega®) was added to a final trypsin to substrate ratio of 1:50 and incubated at 37° C. for overnight (16 hrs). Acetic acid was added to a final concentration of 5% (pH˜3) and the samples were centrifuged at 16,000 g for 30 min prior to LC-MS analysis.
Label-free quantitative proteomics analysis was performed using a high-resolution q-TOF mass spectrometer (Impact II, Bruker Daltonics). 3.6 μg of the protein digest were injected to a C18 (New Objective) trapping column for desalting at a flow rate of […] for 5 minutes. The peptides were separated on a 250 mm PicoFrit capillary column packed with 1.9 μm, 175 A Hypersil Gold aQ C18 particles (New Objective) at a flow rate of 300 nl/min by a gradient of 5-45% mobile phase B (0.1% formic acid in acetonitrile) (mobile phase A: 0.1% formic acid in water). The capillary column tip was customized to fit into the CaptiveSpray nanoESI source (Bruker Daltonics) for direct delivery of samples to the mass spectrometer. The most abundant 30 ions were selected for fragmentation by tandem MS (MS/MS) with an active (dynamic) exclusion time of 45 sec. The control group with and without pI:C treatment were analyzed with 5 and 6, respectively, biological replicates. Each sample was analyzed with 3 injection replicates. Protein identification and quantification were performed using the MaxQuant v1.5.7. Proteins were considered identified when at least 1 unique peptide was identified in at least 2 of the biological replicates. Label-free protein quantification was performed by first normalizing the intensity of the proteins (measured by both unique and razer peptides) to the median intensity of the same dataset, and the maximum and minimum of all the non-zero values (if more than 5 values are non-zero) were removed prior to averaging the datasets from the same group. […] Protein-protein interaction analysis was performed using the STRING database.

[1] = p<0.05 and >50% change, about 2,600 proteins detected

polyinosinic-polycytidylic acid [pI:C] was tested, and the “number of proteins significantly downregulated” value [1] was 100 proteins, the “number of proteins significantly upregulated” value [1] was 168 proteins and the Fold change (protein ABHD10) was 2.205. For the same substance, the Fold change (protein ACSF2) was 1.971, the Fold change (protein AGK) was 2.084 and the Fold change (protein AIFM1) was 2.224. It also gave a Fold change (protein AK4) of 0.122, a Fold change (protein AKAP12) of 0.2108 and a Fold change (protein ALDH18A1) of 0.259. For the same substance, the Fold change (protein ARL6IP1) was 0.2711, the Fold change (protein ATP5F1) was 3.556 and the Fold change (protein ATP6V1F) was 0.284. It also gave a Fold change (protein BMP1) of 2.714, a Fold change (protein C5orf24) of 0.2927 and a Fold change (protein CALD1) of 0.3099. For the same substance, the Fold change (protein CAPZA1) was 0.3292, the Fold change (protein CBWD1) was 0.3341 and the Fold change (protein CDC37) was 0.3347. It also gave a Fold change (protein CDK9) of 1.954, a Fold change (protein CDKN1B) of 0.3393 and a Fold change (protein CFC1, CFC1B) of 2.61. The Fold change (protein CISD1) was 6.047, the Fold change (protein CLNS1A) was 0.3492 and the Fold change (protein CLPX) was 3.1174. It also gave a Fold change (protein COL1A2) of 0.3554, a Fold change (protein COL2A1) of 4.221 and a Fold change (protein COL3A1) of 0.3719. For the same substance, the Fold change (protein COL18A1) was 0.3541, the Fold change (protein CPS1) was 0.3857 and the Fold change (protein CRLF3) was 0.3949. For the same substance, the Fold change (protein CYB5R3) was 2.279, the Fold change (protein DBT) was 71.68 and the Fold change (protein DCXR) was 1.952. For the same substance, the Fold change (protein DKC1) was 0.3962, the Fold change (protein DSG2) was 0.3991 and the Fold change (protein DYNLL1) was 0.407. The Fold change (protein EDC4) was 0.4111, the Fold change (protein EEF1B2) was 0.416 and the Fold change (protein EIF3A) was 0.4235. The Fold change (protein EIF3K) was 0.4335, the Fold change (protein ELAC2) was 0.4539 and the Fold change (protein EMC1) was 3.674. The Fold change (protein EPN1) was 2.525, the Fold change (protein EPS15L1) was 2.414 and the Fold change (protein ERLIN2) was 2.026. For the same substance, the Fold change (protein EXOSC6) was 0.4623, the Fold change (protein FABP5) was 0.4749 and the Fold change (protein FLNA) was 0.4757. The Fold change (protein FLNB) was 0.4767, the Fold change (protein FUBP1) was 0.484 and the Fold change (protein H6PD) was 0.4845. The Fold change (protein HEATR6) was 0.4857, the Fold change (protein HEBP2) was 0.4867 and the Fold change (protein HIST1H2AJ) was 4.696. It also gave a Fold change (protein HMGCS1) of 0.5003, a Fold change (protein HSDL1) of 2.135 and a Fold change (protein IMMT) of 2.059. It also gave a Fold change (protein IQGAP1) of 0.5083, a Fold change (protein ISOC1) of 0.5114 and a Fold change (protein ITM2B) of 2.861. The Fold change (protein KLC4) was 0.5119, the Fold change (protein KRT18, KRT35) was 0.5128 and the Fold change (protein KRT19) was 0.5211. For the same substance, the Fold change (protein LAMA1) was 2.03, the Fold change (protein LGALS1) was 0.5211 and the Fold change (protein LMCD1) was 0.5226. It also gave a Fold change (protein LNP) of 2.183, a Fold change (protein LRRC59) of 0.5235 and a Fold change (protein MAP2K4) of 2.414. It also gave a Fold change (protein MEST) of 0.5333, a Fold change (protein MRPS22) of 1.976 and a Fold change (protein MT-ATP8) of 2.244. For the same substance, the Fold change (protein MTCH2) was 1.99, the Fold change (protein MYL6) was 0.534 and the Fold change (protein MYO9B) was 2.112. It also gave a Fold change (protein NDUFA4) of 2.128, a Fold change (protein NGLY1) of 0.5359 and a Fold change (protein NIT2) of 0.5435. It also gave a Fold change (protein NNT) of 1.994, a Fold change (protein NSDHL) of 2.081 and a Fold change (protein NUP85) of 2.249. It also gave a Fold change (protein OGFR) of 0.5517, a Fold change (protein ORF1) of 2.257 and a Fold change (protein P4HB) of 0.5531. The Fold change (protein PCCA) was 2.032, the Fold change (protein PDLIM1) was 0.5561 and the Fold change (protein PDLIM3) was 0.557. For the same substance, the Fold change (protein PHB2) was 1.952, the Fold change (protein RAC1) was 2.128 and the Fold change (protein RAD54L2) was 4.857. It also gave a Fold change (protein RRAS) of 3.82, a Fold change (protein SLC25A1) of 2.333 and a Fold change (protein SLC25A3) of 2.195. The Fold change (protein SLC25A12) was 1.968, the Fold change (protein SMG7) was 3.817 and the Fold change (protein THBS1, THBS3, THBS2) was 3.483. The Fold change (protein TMEM65) was 2.197, the Fold change (protein UACA) was 1.958 and the Fold change (protein UBE4A) was 5.484. For the same substance, the Fold change (protein UQCRB) was 3.665, the Fold change (protein USMG5) was 2.085 and the Fold change (protein XPO7) was 2.231.
